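96-well plates; 48 h exposure; 5 concentrations. Endpoints by linear interpolation between flanking doses. Not reached: highest tested concentration assigned. GI50 is the concentration that inhibits growth by half.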 Active and inactive are the calls of the source. Rule as the data show it: active = GI50 up to about 1.1 µM and inactive = higher.
Assays:
Assay in all cases: NCI anticancer screen, dose series, 48 h
SK-MEL-28 = tested on: SK-MEL-28
MCF7 = tested on: MCF7
UO-31 = tested on: UO-31
MOLT-4 = tested on: MOLT-4
SF-268 = tested on: SF-268
RXF 393 = tested on: RXF 393
M14 = tested on: M14
DU-145 = tested on: DU-145
HT-29 = tested on: HT-29
Malme-3M = tested on: Malme-3M
BT-549 = tested on: BT-549
MDA-MB-435 = tested on: MDA-MB-435
HCT-15 = tested on: HCT-15
A498 = tested on: A498
OVCAR-3 = tested on: OVCAR-3
SR = tested on: SR
SF-295 = tested on: SF-295
T47D = tested on: T47D
NCI-H226 = tested on: NCI-H226
SK-OV-3 = tested on: SK-OV-3
NCI-H522 = tested on: NCI-H522
SK-MEL-5 = tested on: SK-MEL-5
PC-3 = tested on: PC-3
A549 = tested on: A549
OVCAR-4 = tested on: OVCAR-4
HCT-116 = tested on: HCT-116
NCI-H23 = tested on: NCI-H23
SN12C = tested on: SN12C
HOP-62 = tested on: HOP-62
COLO 205 = tested on: COLO 205
UACC-62 = tested on: UACC-62
MDA-MB-231 = tested on: MDA-MB-231
HL-60 = tested on: HL-60
786-0 = tested on: 786-0
HCC 2998 = tested on: HCC 2998
EKVX = tested on: EKVX
NCI-H460 = tested on: NCI-H460
IGROV-1 = tested on: IGROV-1
UACC-257 = tested on: UACC-257
NCI/ADR-RES = tested on: NCI/ADR-RES
MDA-N = tested on: MDA-N
Hs-578T = tested on: Hs-578T
CCRF-CEM = tested on: CCRF-CEM
HOP-92 = tested on: HOP-92
LOX IMVI = tested on: LOX IMVI
OVCAR-5 = tested on: OVCAR-5
OVCAR-8 = tested on: OVCAR-8
KM12 = tested on: KM12
U-251 = tested on: U-251
ACHN = tested on: ACHN
TK-10 = tested on: TK-10
SF-539 = tested on: SF-539
CAKI-1 = tested on: CAKI-1
K562 = tested on: K562
RPMI-8226 = tested on: RPMI-8226
SNB-75 = tested on: SNB-75
SK-MEL-2 = tested on: SK-MEL-2
SW-620 = tested on: SW-620

Measured: GI50

CCN(CCO)CC1COc2ccccc2O1 (centres undefined)
inactive: SK-MEL-28 > 100 µM | MCF7 > 100 µM | UO-31 > 100 µM | MOLT-4 > 100 µM | SF-268 > 100 µM | RXF 393 > 100 µM | M14 > 100 µM | DU-145 > 100 µM | HT-29 > 100 µM | Malme-3M > 100 µM | BT-549 > 100 µM | MDA-MB-435 > 100 µM | A498 > 100 µM | OVCAR-3 > 100 µM | SR > 100 µM | SF-295 > 100 µM | T47D > 100 µM | NCI-H226 > 100 µM | SK-OV-3 > 100 µM | NCI-H522 > 100 µM | SK-MEL-5 > 100 µM | PC-3 > 100 µM | A549 > 100 µM | OVCAR-4 > 100 µM | HCT-116 > 100 µM | NCI-H23 > 100 µM | SN12C > 100 µM | HOP-62 > 100 µM | COLO 205 > 100 µM | UACC-62 > 100 µM | MDA-MB-231 > 100 µM | HL-60 > 100 µM | 786-0 > 100 µM | HCC 2998 > 100 µM | EKVX > 100 µM | NCI-H460 > 100 µM | IGROV-1 > 100 µM | UACC-257 > 100 µM | NCI/ADR-RES > 100 µM | MDA-N > 100 µM | Hs-578T > 100 µM | CCRF-CEM > 100 µM | HOP-92 > 100 µM | LOX IMVI > 100 µM | OVCAR-5 > 100 µM | OVCAR-8 > 100 µM | KM12 > 100 µM | U-251 > 100 µM | ACHN > 100 µM | TK-10 > 100 µM | SF-539 > 100 µM | CAKI-1 > 100 µM | K562 > 100 µM
> 100 µM: HCT-15

COc1ccc2c(c1)c1c(n2CCN2CCOCC2)-c2ccccc2CC1
inactive: SK-MEL-28 42.4 µM | MCF7 30.8 µM | UO-31 > 100 µM | MOLT-4 17.1 µM | RPMI-8226 22.5 µM | SF-268 42.3 µM | RXF 393 34 µM | M14 41.4 µM | DU-145 35.7 µM | HT-29 36.6 µM | Malme-3M 32.8 µM | BT-549 > 100 µM | MDA-MB-435 34 µM | SNB-75 39.7 µM | A498 32.9 µM | OVCAR-3 44.8 µM | SR 18.2 µM | SF-295 27.9 µM | T47D 39.5 µM | NCI-H226 21.4 µM | SK-OV-3 > 100 µM | NCI-H522 35.4 µM | SK-MEL-5 20.7 µM | PC-3 26.1 µM | A549 30.8 µM | OVCAR-4 48.4 µM | SK-MEL-2 25.4 µM | HCT-116 33.5 µM | NCI-H23 > 100 µM | SN12C 18.8 µM | HOP-62 45.4 µM | COLO 205 17.1 µM | UACC-62 > 100 µM | SW-620 32 µM | MDA-MB-231 29.4 µM | 786-0 37.4 µM | HCC 2998 20.7 µM | NCI-H460 31.9 µM | IGROV-1 37.2 µM | UACC-257 47.1 µM | NCI/ADR-RES 35.5 µM | MDA-N 32.2 µM | Hs-578T 18.8 µM | CCRF-CEM 27.2 µM | HOP-92 46.8 µM | OVCAR-5 71.4 µM | OVCAR-8 34.2 µM | KM12 32.8 µM | U-251 29.9 µM | ACHN 38.5 µM | TK-10 48.1 µM | SF-539 23.1 µM | CAKI-1 > 100 µM | K562 15.3 µM
29.9 µM: HCT-15

Reference: ChEMBL document CHEMBL1201862, “PubChem BioAssay data set” (2004)
